Assay results taken from article PMC12180637, “Active peptides of TSP-1 inhibit retinal angiogenesis through the CD36 pathway in a rat model of choroidal neovascularization” (PLOS One, 2025).
Several values for one entry are separate records, joined by “and”; a condition that tells them apart may be missing. Equal values may be shown once. Square brackets hold non-standard residues; d marks the D form. Nva = CCC[C@H](N)C(=O)O; Sar = CNCC(=O)O

What was measured:
[1] = tested on: CD36 knockdown RF/6A cells; test: EdU assay in CD36 knockdown cells; format: cell-based; settings: Fig 5 data, exogenous VEGF alone, single replicates (n = 4)
Experimental: The Cell Counting Kit-8 (CCK-8) from Proteintech (China) and 5-ethynyl-2′-deoxyuridine (EdU)-488™ kit from Beyotime (China) were employed for the assessment of the proliferative viability of RF/6A cell. Additionally, 10^4 cells were plated in 96-well plates. After 24 h of intervention, according to different groups, CCK-8 detection reagent was added, and the optical density was recorded at 450 nm during the following 4 h. Regarding the EdU assay, 2 × 10^4 cells were cultured in 24-well plates after 24 h of intervention according to different groups. Firstly, the EdU working solution (20μM) preheated at 37 ° C was combined with medium at the ratio of 1:1. Secondly, the cells were washed three times with (phosphate buffered saline) PBS after the fixing with 4% paraformaldehyde for 15 min. Subsequently, the samples were permeabilized with PBS that contained 0.3% Triton X-100 for 10 min, followed by three times of washing with PBS, after which the EdU detection was conducted. Whereafter, 100 μL Click reaction solution was added to each well and incubated at room temperature in the dark for 30 min, followed by washing again with PBS, the Click reaction solution configuration method was shown in Table 1. Finally, fluorescence detection was performed after nuclear staining by Hoechst 33342. […]

RF/6A cells [2] = test: Wound-healing assay; format: cell-based; settings: 1 ng/mL exogenous VEGF, 24 h
Experimental: (§1) RF/6A cells were obtained from Cell Cook, China. The cells were maintained in minimum essential medium supplemented with 10% fetal Bovine serum (Viva Cell, China) and 1% penicillin-streptomycin solution (Viva Cell, China). Additionally, the samples were cultured in an incubator under the condition of 37 °C and 5% CO2.
After the drawing of 3 parallel lines at the external bottom surface of a 6-well plate, 4 × 10^5 RF/6A cells were seeded in it and incubated to a density of 80–90%. Next, scratches perpendicular to the drawn lines were made at the bottom of each well by a 200 μL pipette tip. Subsequently, the wells were rinsed three times with PBS to eliminate the floating cells. Whereafter, the medium was replaced with the serum that contained 1% fetal bovine. The wound healing process was assessed at the time point of 0 h and 24 h, alongside the acquirement of microscope images at 10× for the record and statistical analysis of the scratch distance. Additionally, the scratch healing rate was calculated as follows:
Scratch_healing_rate=0h_scratch_distance−24h_scratch_distance/0h_scratch_distance100% (1)

RF/6A cells [3] = test: EdU proliferation assay; format: cell-based; settings: Fig 2 data, 1 ng/mL exogenous VEGF alone, 24 h, single replicates (n = 4)
Experimental: as §1
(§2) The Cell Counting Kit-8 (CCK-8) from Proteintech (China) and 5-ethynyl-2′-deoxyuridine (EdU)-488™ kit from Beyotime (China) were employed for the assessment of the proliferative viability of RF/6A cell. Additionally, 10^4 cells were plated in 96-well plates. After 24 h of intervention, according to different groups, CCK-8 detection reagent was added, and the optical density was recorded at 450 nm during the following 4 h. Regarding the EdU assay, 2 × 10^4 cells were cultured in 24-well plates after 24 h of intervention according to different groups. Firstly, the EdU working solution (20μM) preheated at 37 ° C was combined with medium at the ratio of 1:1. Secondly, the cells were washed three times with (phosphate buffered saline) PBS after the fixing with 4% paraformaldehyde for 15 min. Subsequently, the samples were permeabilized with PBS that contained 0.3% Triton X-100 for 10 min, followed by three times of washing with PBS, after which the EdU detection was conducted. […] Finally, fluorescence detection was performed after nuclear staining by Hoechst 33342.

RF/6A cells [4] = test: CCK-8 cell viability assay; format: cell-based; settings: CCK-8, different concentrations of recombinant human VEGF165 (S2 Fig A)
Experimental: as §1, §2

CD31 = test: Western blot of CD31 in RF/6A cells; format: cell-based; settings: exogenous VEGF 1 ng/mL
Experimental: (§3) Western blot analysis was employed in this study for the assessment of the expression levels of proteins. Total protein was extracted with Radioimmunoprecipitation (RIPA) buffer (Solarbio, China) that contained phenylmethanesulfonyl fluoride (PMSF), followed by separation by 10% sodium dodecyl sulfate–polyacrylamide gel electrophoresis (SDS-PAGE, Yazyme, China). Additionally, the constant pressure of 80 V was used for 40–50 min during the electrophoresis of the proteins in compression gel. Besides, the voltage was adjusted to 120 V after the entering of proteins to the separating gel. Subsequently, proteins were transferred onto a polyvinylidene difluoride (PVDF) membrane (Millipore, USA), and the operation time was determined according to the molecular weight of the protein (VEGF-55 min, CD31-91 min). The membrane was blocked with 5% non-fat milk for 2 h and incubated with primary antibodies overnight at 4 °C, and the primary antibody was diluted with Tris-Buffered Saline with Tween 20 (TBST) following the instructions. Subsequently, the samples were washed three times with TBST, incubated with the corresponding secondary antibody for 90 min at room temperature, and washed three times with TBST. Besides, Electrochemiluminescence (Invitrogen iBright™ FL1500) was used for the visualization of proteins, followed by the imaging analysis of the experimental results. […]

VEGF = test: Western blot of VEGF in RF/6A cells; format: cell-based; settings: exogenous VEGF 1 ng/mL
Experimental: as §3

[5] = stated in brackets for the recombinant human VEGF165 protein used; no test or source described; cited from earlier work
Experimental: CCK-8 and EdU assays were conducted to evaluate the cellular proliferation after a 24 h exposure to exogenous VEGF, which was amined to analyze the impact of 10 μg/mL VR-13 peptide on RF/6A cell proliferation induced through exogenous VEGF.

RF/6A cells [6] = test: Flow cytometry, total apoptosis rate; format: cell-based
tumor growth = settings: cited from earlier work; for apoptotic index of endothelial cells (in words): in vivo studies, mouse tumor models; for tumor growth (in words): syngeneic and xenograft mouse models
Source text: (§4) Additionally, TSP-1 could interact with various ligands, including extrac ...

[7] = tested on: VEGF-induced angiogenesis; settings: cited from earlier work
Source text: as §4

Substance	EdU positive(%) [1]	migration of RF/6A cells exposed to VEGF (in words) (RF/6A cells [2])	EdU positive(%) (RF/6A cells [3])	optimal concentration for inducing significant proliferation of RF/6A (RF/6A cells [4]) [ng/mL]	CD31 expression in RF/6A cells after exogenous VEGF (in words) (CD31)	VEGF expression in RF/6A cells after exogenous VEGF (in words) (VEGF)	EC50 [5] [ng/mL]	apoptosis rate (RF/6A cells [6]; Fig 3 data, RF/6A, 1 ng/mL exogenous VEGF alone, single replicates (n = 6))	apoptosis of RF/6A cells after exogenous VEGF (in words) (RF/6A cells [6]; exogenous VEGF)	apoptotic index of endothelial cells (in words) (tumor growth)	tumor growth (in words) (tumor growth)	VEGF-induced angiogenesis (in words) [7]
VEGF	24% and 28.99% and 30.32% and 23.72%	strong cell migration ability	37.99% and 38.36% and 36.47% and 33.64%	1	significantly upregulated	significantly upregulated	0.3 to 3.75	8.99 and 11.46 and 10.46 and 11.80 and 11.97 and 12.71	didn’t exhibit a connection with apoptosis	–	–	–
Ac-[Sar]GV[dI]T[Nva]IRP-NHEt [ABT-526, anti-angiogenic nonapeptide based on TSP-1 type I repeats]	–	–	–	–	–	–	–	–	–	increase of the apoptotic index of endothelial cells	slow down the tumor growth	–
Ac-Sar-Gly-Val-Dallolle-Thr-Nva-Ile-Arg-Pro-NHEt [ABT-510, anti-angiogenic nonapeptide based on TSP-1 type I repeats]	–	–	–	–	–	–	–	–	–	increase of the apoptotic index of endothelial cells	slow down the tumor growth	inhibit VEGF-induced angiogenesis
